Data published in patent publication US20120116069A1, “GLUCOSE METABOLISM-IMPROVING AGENT AND GLUCOSE METABOLISM-IMPROVING COMPOSITION” (LION CORPORATION, priority 2009, published 2012).

Experiments:
[1] = tested on: human subjects having a fasting blood sugar level of 120 mg/dL to 140 mg/dL; test: Test of PT/PD intake for human: fasting and postprandial blood sugar level, blood indices; format: in vivo; conditions: for fasting blood sugar level: 8 mg capsule once a day for eight weeks; for fasting blood sugar level / postprandial blood sugar level: compared with the placebo-given group; for postprandial blood sugar level / 1-5AG / Glycoalbumin / HbA1c / Insulin (fasting): 8 mg capsule once a day; for postprandial blood sugar level: 30 min, 60 min and 120 min, starch food load
Experimental: (§1) Panax notoginseng powder (10 g) was suspended in 100 mL of 30% by mass aqueous solution of ethanol, and then saponins were extracted under heating for 2 hours. The obtained extract was hydrolyzed in the presence of hydrochloric acid to prepare an aglycon-containing product. The aglycon-containing product was treated with a silica gel column (SILICA GEL 60N, product of KANTO CHEMICAL CO., LTD.) to isolate and prepare panaxatriol (PT) having a purity of 99% by mass or higher.
Next, capsules each containing 8 mg of the thus-prepared panaxatriol (PT) were prepared. These capsules were given continuously for eight weeks to human subjects of a group (hereinafter may be referred to as “PT-given group”) to measure the fasting blood sugar level and a change in postprandial blood sugar level which was measured after giving to the human subjects predetermined meals such as a meal containing an excessive amount of starch food (e.g., a rice ball formed of 200 g of cooked rice (350 kcal)). Also, the blood indices measured were the blood HbA1c level, the blood glycoalbumin level, the blood 1·5AG level and the fasting blood insulin level.
The blood sugar levels were measured with a simplified blood sugar meter FREESTYLE (product of NIPRO Co.). The fasting blood sugar level and the fasting insulin level were measured at 9 a.m. The postprandial blood sugar level was measured every 30 min for 120 min from 9 a.m. to 11:30 a.m. after the predetermined starch food had been given to the subjects. The HbA1c, glycoalbumin and 1·5AG levels were measured by a routine method of a medical facility using the blood sampled at 9 a.m.
(§2) The 24 subjects were randomly divided to two groups and assigned to a placebo-given group, serving as a control, and a PT-given group. Also, the results were statistically analyzed using the Student's t-test comparing the placebo-given group and the PT-given group. The time at which the capsules were given was set to 10 a.m. every day so that the capsules were not given at the same time as a meal.
as §1, with “panaxadiol (PD)” for “panaxatriol (PT)”
Next, capsules each containing 8 mg of the thus-prepared panaxadiol (PD) were prepared. These capsules were given continuously for eight weeks to human subjects of a group (hereinafter may be referred to as “PD-given group”) to measure the fasting blood sugar level and a change in postprandial blood sugar level which was measured after giving to the human subjects predetermined meals such as a meal containing an excessive amount of starch food (e.g., a rice ball formed of 200 g of cooked rice (350 kcal)). Also, the blood indices measured were the blood HbA1c level, the blood glycoalbumin level, the blood 1·5AG level and the fasting blood insulin level.
as §2, with “and a PD-given group. Also,” for “and a PT-given group. Also,”, “and the PD-given group. The” for “and the PT-given group. The”, “time as the meal.” for “time as a meal.”

[2] = tested on: model mice of hyperglycemia (KKAy mouse); test: Amount of 13CO2 excreted in exhaled gas after oral glucose-U-13C6; format: in vivo; conditions: 0.1% by mass in high fat diet for one week, four hours after oral glucose-U-13C6, versus control group
Experimental: Twenty-four model mice of hyperglycemia (KKAy mouse (product of CLEA Japan, Inc.), male, four weeks old) were preliminarily bred for one week in individual cages under the following conditions: temperature: room temperature (22° C.±1° C.), humidity: 50%±5%, and light-dark cycle: 12 hours. Eight grams per day of CE-2 (product of CLEA Japan, Inc.) was given to each mouse as feed during the preliminary breeding, while water was given ad libitum. […] Thereafter, an aqueous solution of glucose and glucose-U-^13C6 was orally administered to each mouse at a concentration calculated from the following: [2.0 g D-glucose (product of NACALAI TESQUE, INC.)+72 mg D-glucose-U-^13C6 (99%) (product of Cambridge Isotope Lab.)/kg-body weight]. Then, the cumulative amount of ^13CO2 excreted was measured for four hours. The cumulative amount of ^13CO2 excreted is expressed as AUC (increment in the amount of ^13CO2 excreted). Here, the AUC (increment in the amount of ^13CO2 excreted) refers to an area corresponding to the increment between the amount of ^13CO2^3 excreted prior to administration of glucose-U-^13C6 (baseline) to the amount of ^13CO2 excreted measured four hours after administration of glucose-U-^13C6 in a graph where a change in the amount of ^13CO2 excreted is plotted against time after administration of glucose-U-^13C6.

SMILES | fasting blood sugar level [1] | postprandial blood sugar level [1] | 1-5AG ([1]; Week 0) | Glycoalbumin ([1]; Week 0) | HbA1c ([1]; Week 0) | Insulin (fasting) ([1]; Week 0) | 1-5AG ([1]; Week 2) | Glycoalbumin ([1]; Week 2) | HbA1c ([1]; Week 2) | Insulin (fasting) ([1]; Week 2) | 1-5AG ([1]; Week 4) | Glycoalbumin ([1]; Week 4) | HbA1c ([1]; Week 4) | Insulin (fasting) ([1]; Week 4) | 1-5AG ([1]; Week 8) | Glycoalbumin ([1]; Week 8) | HbA1c ([1]; Week 8) | Insulin (fasting) ([1]; Week 8) | amount of 13CO2 excreted [2]
CC1(C)CCC[C@](C)([C@H]2CC[C@]3(C)[C@@H]2[C@H](O)C[C@@H]2[C@@]4(C)CC[C@H](O)C(C)(C)[C@@H]4CC[C@]23C)O1 [PD, panaxadiol] | decreased significantly | decrease significantly | 24.4 ± 7.8 µg/mL | 14.8 ± 1.4 % by mass | 5.1 ± 0.1 % by mass | 5.6 ± 1.4 μU/mL | 24.1 ± 7.2 µg/mL | 14.5 ± 1.2 % by mass | 5.1 ± 0.2 % by mass | 5.9 ± 2.2 μU/mL | 25.0 ± 7.3 µg/mL | 14.3 ± 1.3 % by mass | 5.1 ± 0.1 % by mass | 5.9 ± 3.8 μU/mL | 25.7 ± 6.4 µg/mL | 14.2 ± 1.1 % by mass | 4.8 ± 0.1 % by mass | 6.1 ± 2.6 μU/mL | significantly increased
CC1(C)CCC[C@](C)([C@H]2CC[C@]3(C)[C@@H]2[C@H](O)C[C@@H]2[C@@]4(C)CC[C@H](O)C(C)(C)[C@@H]4[C@@H](O)C[C@]23C)O1 [PT, panaxatriol] | decreased significantly | decrease significantly | 24.3 ± 7.7 µg/mL | 14.7 ± 1.3 % by mass | 5.1 ± 0.1 % by mass | 5.5 ± 1.5 μU/mL | 24.2 ± 7.1 µg/mL | 14.5 ± 1.3 % by mass | 5.1 ± 0.2 % by mass | 6.1 ± 2.1 μU/mL | 25.0 ± 7.5 µg/mL | 14.3 ± 1.3 % by mass | 5.1 ± 0.1 % by mass | 5.8 ± 4.2 μU/mL | 25.6 ± 6.3 µg/mL | 14.2 ± 1.3 % by mass | 4.8 ± 0.2 % by mass | 6.2 ± 2.4 μU/mL | significantly increased
